{
  "source": "patent US4316892A",
  "about": "“2,6-C-Dimethyltyrosine^1 -D-amino acid^2 -ε-amino caproic and γ aminobutyric acid^5 derivatives of methionine enkephalin” (G. D. Searle & Co., priority 1980, dated 1982)",
  "origin": "cited, not measured here",
  "key": {"[1]": {"conditions": "injected directly into the brain of the rat; Belluzi et al."}, "brain opiate receptor": {"system": "brain opiate receptor", "conditions": "partially purified brain opiate receptor; Bradbury et al."}, "[2]": {"conditions": "bioassays for opiate activity"}},
  "data": [
    {"substance": "methionine enkephalin", "values": [
      {"measurement": "analgesic activity", "setting": "[1]", "result": "weak, fleeting analgesic activity"},
      {"measurement": "binding to brain opiate receptor sites", "setting": "brain opiate receptor", "result": "binds stereospecifically"},
      {"measurement": "opiate activity", "setting": "[2]", "result": "highly active"}
    ]}
  ]
}
